The source of these data is patent publication US8460718B2, “Synergistic compositions and methods” (LycoRed Ltd., priority 2011, dated 2013).

Structures are written as SMILES.

The test system of data set [1] is LNCaP, human androgen dependent prostate cancer cells. In words: LNCaP cell proliferation, [3H]thymidine incorporation assay. Type of data set: cell-based. The following applies: LNCaP cells stimulated by 1 nM DHT, treated 3 days; for cell growth inhibition (thymidine incorporation), phytosterol alone: phytosterol alone 0-50 μM. How it is done: In these experiments, LNCaP cells were preincubated for 24 hours in 0.5% serum and then growth (quantified by measuring thymidine incorporation) was stimulated by 1 nM DHT. Stimulated cells were treated for 3 days with the indicated concentration of the phytosterols alone, or in combination with 0.4 μM lycopene. Data presented are the mean±SE of 2-3 independent experiments performed in quadruplicates.
Cell culture and cell proliferation assay: LNCaP, human androgen dependent prostate cancer cells, were purchased from American Type Culture Collection (Rockwell, Md.). Cells were grown in RPMI1640 containing 0.6 μg/ml insulin. All culture media were supplemented with L-glutamine (2 mM), penicillin (100 U/ml), streptomycin (0.1 mg/ml), nystatin (12.5 μg/ml), and 10% FCS. Cells were seeded in medium containing 3% FCS or 3% DCC phenol red free medium and 10 mM HEPES onto 96- and 6-multiwell plates (4-7×10^3 and 1.7×10^5 cells/well, respectively). One day later, the medium was changed to 0.5% FCS or 0% medium for an additional one day of incubation. Then the medium was changed to one containing the micronutrients (phytosterols, carotenoids, phospholipids, etc.) at the indicated concentrations and incubation was continued for 1-3 days. In order to assure that the agent was continuously present during prolonged incubation, the medium was replaced daily with one containing fresh carotenoids. Lycopene was dissolved in tetrahydrofuran at a concentration of 2 mM and stored at −20° C. Immediately before the experiment, the stock solution was added to the cell culture medium. The final concentration of lycopene in the medium was measured by spectrophotometry after extraction in 2-propanol and n-hexane:dichloromethane [3H]thymidine incorporation assay was performed in 96-multiwell plates. Cells were incubated with 1.25-2.50 uCi/well of [3H]thymidine (specific radioactivity 5 mCi/mmol in μCi/well) for one to four hours. The nucleotide incorporation was stopped by addition of unlabeled thymidine (0.5 μmol). The cells were then trypsinized and collected on a glass-fiber filter using a cell harvester (Inotech). Radioactivity was determined by a radioactive image analyzer (BAS 1000, Fuji).
All procedures were performed under dim light in order to prevent carotenoid degradation.
FIGS. 1A-1E. LNCaP cell were preincubated for 24 hours in 0.5% serum and then growth (thymidine incorporation) was stimulated by 1 nM DHT. Stimulated cells were treated for 3 days with the indicated concentrations of the phytosterols alone, or in combination with 0.4 μM Lycopene. Data presented are the mean±SE of 2-3 independent experiments performed in quadruplicates.

The next data set deals with HT-29 human colon cancer. The following applies: HT-29, 16 μM; cited from earlier work.
Data set [2] relates to LNCaP human prostate cancer. The conditions noted are these: 16 μM; cited from earlier work.
Data set [3] deals with MDA-MB-231 human breast cancer. The following applies: MDA-MB-231, 16 μM; cited from earlier work.
Data set [4] relates to MCF-7 human breast cancer. The following applies: MCF-7, 0.001 to 150 μM; cited from earlier work.
Data set [5] concerns phorbol esters (PMA)-stimulated macrophages (RAW 264.7 cells). The following applies: cited from earlier work.
The conditions of data set [6]: in animals; cited from earlier work.
For data set [7] the following is noted: in vivo; cited from earlier work.
Where [8] appears, read: RAW 264.7, effects 3-6 hours after preincubation.

As to `CC[C@H](CC[C@@H](C)[C@H]1CC[C@H]2[C@@H]3CC=C4C[C@@H](O)CC[C@]4(C)[C@H]3CC[C@]12C)C(C)C` [β-sitosterol], the “cell growth inhibition (thymidine incorporation), phytosterol alone” value (“cell growth inhibition … phytosterol alone” below) in data set [1] was “inhibited prostate cancer cell proliferation in a dose dependent manner”. Also, the growth result in the data set with HT-29 human colon cancer is reported as “inhibition”. In data set [2], the PSA levels result is “reduced PSA” and the growth result was “inhibition;”. Moreover, in data set [3], the growth result is “inhibition”. The growth result in data set [4] is on record as “increase”. In addition, in data set [5] (setting [8]), the “H2O2 production induced by PMA” value was “decrease” and the “O2(−) production induced by PMA” value is on record as “decrease”. Also, in data set [5] (RAW 264.7), the “NO release induced by PMA” value is on record as “reduced” and the “inducible nitric oxide synthase (iNOS) levels” value was “impairment”.
Regarding `CC[C@H](/C=C/[C@@H](C)[C@H]1CC[C@H]2[C@@H]3CC=C4C[C@@H](O)CC[C@]4(C)[C@H]3CC[C@]12C)C(C)C` [Stigmasterol], the “cell growth inhibition … phytosterol alone” value in data set [1] is listed as “did not have any effect on cell growth inhibition”. Moreover, the intestinal absorption result in data set [6] is on record as “only absorbed minimally”.
Regarding `CC(C)CCC[C@@H](C)[C@H]1CC[C@H]2[C@@H]3CC=C4C[C@@H](O)CC[C@]4(C)[C@H]3CC[C@]12C` [cholesterol, reference compound], the growth result in data set [3] is given as “unchanged”. In addition, in data set [7], the absorption is on record as 35-70%.
For the compound `CC(C)[C@H](C)CC[C@@H](C)[C@H]1CC[C@H]2[C@@H]3CC=C4C[C@@H](O)CC[C@]4(C)[C@H]3CC[C@]12C` [Campesterol], in data set [1], the “cell growth inhibition … phytosterol alone” value was “did not have any effect on cell growth inhibition”. In data set [3], the growth entry is recorded as “unchanged”. The intestinal absorption result in data set [6] is listed as “better absorbed than β-sitosterol”.
On to `CC(C)=CCC/C(C)=C/C=C/C(C)=C/C=C/C(C)=C/C=C/C=C(C)/C=C/C=C(C)/C=C/C=C(\C)CCC=C(C)C` [lycopene], for which the “cell growth inhibition (thymidine incorporation), lycopene alone” value in data set [1] (0.4 μM lycopene alone) is “did not inhibit proliferation”.
